Read-outs that look alike come from different tables or passages of the source. Non-standard residues stand in square brackets, D forms with d. Residues, ends and D or L forms follow the SMILES beside them. *: point of attachment. X1 = O=C(O)CN1CCN(CC(=O)O)CCN([C@H](CCC(=O)*)C(=O)O)CCN(CC(=O)O)CC1; Benzoyl(4-SiFtBu2) = CC(C)(C)[Si](F)(c1ccc(C(=O)*)cc1)C(C)(C)C; Nle = CCCC[C@H](N)C(=O)O; dDap = NC[C@@H](N)C(=O)O
Columns and labels:
[1] = Biodistribution at 24 h p.i. in AR42J tumour-bearing CB17-SCID mice; assay type: in vivo; conditions: mouse, in vivo, 100 pmol, n = 4, mean ± SD
Description: Figure 4 Biodistribution of the reference compound, [^177Lu]Lu-DOTA-PP-F11N (blue), the α-linked [^177Lu]Lu-(R)-DOTAGA-rhCCK-9 (red) and the γ-linked [^177Lu]Lu-(R)-DOTAGA-rhCCK-16 (green) in selected organs (%ID/g) at 24 h p.i. in AR42J tumour-bearing CB17-SCID mice (100 pmol each, n = 4). Data is expressed as mean ± SD.
All animal experiments were conducted in accordance with general animal welfare regulations in Germany (German animal protection act, in the edition of the announcement, dated 18 May 2006, as amended by Article 280 of 19 June 2020, approval no. ROB-55.2-1-2532.Vet_02-18-109 by the General Administration of Upper Bavaria) and the institutional guidelines for the care and use of animals. CB17-SCID mice of both genders and aged 2–12 months (Charles River Laboratories International Inc., Sulzfeld, Germany) were allowed to acclimate at the in-house animal facility for at least one week prior to tumour cell inoculation was performed. Tumour xenografts were generated using AR42J cells (5.0 × 10^6 cells per 200 µL) suspended in a 1/1 mixture (v/v) of RPMI 1640 medium and Cultrex® Basement Membrane Matrix Type 3 (Trevigen, Gaithersburg, MD, USA). This suspension was inoculated subcutaneously onto the right shoulder and animals were used when tumour volume was >100 mm^3 (1–2 week after inoculation). Exclusion criteria for animals from an experiment were either weight loss higher than 20%, a tumour size above 1500 mm^3, an ulceration of the tumour, respiratory distress or a change of behaviour. None of these criteria applied to any animal from the experiment. Neither randomisation nor blinding was applied in the allocation of the experiments. Health status is SPF according to FELASA.
For biodistribution studies, the ^177Lu-labelled compound (approx. 2–3 MBq, 100 pmol) was injected into a lateral tail vein (n = 4) of anesthetised (2% isoflurane) AR42J tumour-bearing CB-17-SCID mice. At 24 h post-injection (p.i.), the mice were euthanised. Thereafter, the pertinent organs were removed, weighed and measured using a γ-counter.

CCK-2R = target: T1, CCK-2R (Rattus norvegicus, UniProt P30553); assay: Competitive binding (IC50) on AR42J cells with [177Lu]Lu-DOTA-PP-F11N as radiolabelled reference; conditions: natLu-labelled peptide, AR42J cells 2.0 × 10^5/well, 3 h, 37 °C, [177Lu]Lu-DOTA-PP-F11N 0.3 pmol/well
T1 construct: CCK-2R expressing rat pancreatic cancer cells AR42J (CLS GmbH, Eppelheim,; host or cells: AR42J rat pancreatic cancer cells
T1 sequence (P30553 1-452): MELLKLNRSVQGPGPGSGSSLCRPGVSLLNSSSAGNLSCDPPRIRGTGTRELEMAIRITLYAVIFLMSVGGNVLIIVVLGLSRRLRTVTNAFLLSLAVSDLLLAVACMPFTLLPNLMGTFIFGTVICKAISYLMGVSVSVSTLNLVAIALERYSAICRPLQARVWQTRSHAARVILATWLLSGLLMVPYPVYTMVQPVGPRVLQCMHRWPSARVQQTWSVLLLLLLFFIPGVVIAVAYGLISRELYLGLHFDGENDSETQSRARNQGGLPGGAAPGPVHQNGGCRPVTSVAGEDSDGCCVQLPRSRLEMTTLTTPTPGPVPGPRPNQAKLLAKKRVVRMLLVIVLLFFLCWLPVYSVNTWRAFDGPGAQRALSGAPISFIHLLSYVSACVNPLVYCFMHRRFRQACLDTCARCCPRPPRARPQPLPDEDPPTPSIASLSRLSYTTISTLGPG
Description: Detailed description of all cell-based experiments is provided in the Supplementary Materials. In brief, competitive binding studies were conducted on AR42J cells (2.0 × 10^5 cells per 1 mL/well) via incubation at 37 °C for 3 h using [^177Lu]Lu-DOTA-PP-F11N (0.3 pmol) as a radiolabelled reference (n = 3).
Cell Culture. CCK-2R expressing rat pancreatic cancer cells AR42J (CLS GmbH, Eppelheim, Germany) were cultivated in monolayers in CELLSTAR ® cell culture flasks acquired from Greiner Bio-One GmbH (Frickenhausen, Germany) at 37 °C in a humidified atmosphere (5% CO2) using a HERAcell 150i-Incubator (Thermo Fisher Scientific Inc., Waltham, United States). As nutrient medium RPMI 1640 medium, supplemented with 5 mM L-Gln 5 mL non-essential amino acids (100×) and 10% FCS, was used. Furthermore, a Dulbecco’s PBS solution with 0.1% EDTA (v/v) was applied to detach the cells for cell passaging. The detached cells were counted using a Neubauer hemocytometer ( Paul Marienfeld, Lauda-Königshofen, Germany). In addition, all operations under sterile conditions were accomplished using a MSC-Advantage safety workbench (Thermo Fisher Scientific Inc., Waltham, United States).
Determination of IC50. AR42J cells (2.0 × 10^5 cells/well) were seeded into 24-well plates 24 ± 2 h prior to testing, using 1 mL of nutrient medium (RPMI 1640, 5 mM L-Gln, 5 mL non-essential amino acids (100×), 10% FCS). Cells were incubated at 37 °C in a humidified atmosphere (5% CO2).
After removal of the medium, each well was washed with 500 μL PBS. For the cell-based assay, 200 μL of nutrient medium (+5% BSA), [177Lu]Lu-DOTA-PP-F11N (25 μL, 0.3 pmol) as a radiolabeled reference and 25 μL of the peptide of interest in increasing concentrations (10−10 to 10−4 M) in triplicate were added to the cells. Thereafter, the assay was incubated for 3 h at 37 °C and thereafter, the supernatant was collected. The cells were washed with 300 μL PBS and the collected supernatant fractions were unified.
After lysis of the cells with NaOH (300 μL, 1 N) for 15 min, the respective wells were washed with NaOH (300 μL, 1 N) and both fractions were unified. The radioactivity of both, the supernatant and the lysed fractions was quantified using a γ-counter (PerkinElmer Inc., Waltham, United States ). The obtained data were evaluated via the GraphPad PRISM software ( GraphPad Software Inc., La Jolla, United States), which calculates the halfmaximal inhibitory concentration ( IC50) of the peptides. […]

[2] = AR42J tumour, read-out: Biodistribution, Tumour
[3] = read-out: Biodistribution, Adrenal
[4] = read-out: Biodistribution, Blood
[5] = read-out: Biodistribution, Bone
[6] = read-out: Biodistribution, Heart
[7] = read-out: Biodistribution, Intestine
[8] = read-out: Biodistribution, Kidney
[9] = read-out: Biodistribution, Liver
[10] = read-out: Biodistribution, Lung
[11] = read-out: Biodistribution, Muscle
[12] = read-out: Biodistribution, Pancreas
[13] = read-out: Biodistribution, Spleen
[14] = read-out: Biodistribution, Stomach

| IC50 (CCK-2R; listed as [^natLu]Lu-CP04, read-out: IC50) [µM] | IC50 (CCK-2R; read-out: IC50) [µM] | Structure (SMILES) | tissue uptake at 24 h [1, 2] [%ID/g] | tissue uptake at 24 h [1, 3] [%ID/g] | tissue uptake at 24 h [1, 4] [%ID/g] | tissue uptake at 24 h [1, 5] [%ID/g] | tissue uptake at 24 h [1, 6] [%ID/g] | tissue uptake at 24 h [1, 7] [%ID/g] | tissue uptake at 24 h [1, 8] [%ID/g] | tissue uptake at 24 h [1, 9] [%ID/g] | tissue uptake at 24 h [1, 10] [%ID/g] | tissue uptake at 24 h [1, 11] [%ID/g] | tissue uptake at 24 h [1, 12] [%ID/g] | tissue uptake at 24 h [1, 13] [%ID/g] | tissue uptake at 24 h [1, 14] [%ID/g] | IC50 (CCK-2R) [µM] |
| --- | --- | --- | --- | --- | --- | --- | --- | --- | --- | --- | --- | --- | --- | --- | --- | --- |
|  |  | CCCC[C@H](NC(=O)[C@H](Cc1c[nH]c2ccccc12)NC(=O)CNC(=O)[C@H](Cc1ccc(O)cc1)NC(=O)[C@H](C)NC(=O)[C@@H](CCC(=O)O)NC(=O)[C@@H](CCC(=O)O)NC(=O)[C@@H](CCC(=O)O)NC(=O)[C@@H](CCC(=O)O)NC(=O)[C@@H](CCC(=O)O)NC(=O)[C@@H](CCC(=O)O)NC(=O)[C@@H](CCC(=O)O)NC(=O)[C@@H](CCC(=O)O)NC(=O)[C@@H](CNC(=O)c1ccc([Si](F)(C(C)(C)C)C(C)(C)C)cc1)NC(=O)CC[C@H](C(=O)O)N1CCN(CC(=O)O)CCN(CC(=O)O)CCN(CC(=O)O)CC1)C(=O)N[C@@H](CC(=O)O)C(=O)N[C@@H](Cc1ccccc1)C(N)=O [[nat/177Lu]Lu-(R)-DOTAGA-rhCCK-9, metal not drawn] (X1-[dDap](Benzoyl(4-SiFtBu2))[dE][dE][dE][dE][dE][dE][dE][dE]AYGW[Nle]DF-NH2) | 6.4 ± 1.48 | 0.45 ± 0.3 | 0.02 | 0.82 ± 0.42 | 0.09 ± 0.03 | 0.26 ± 0.04 | 84.4 ± 22.7 | 1.07 ± 0.54 | 0.1 ± 0.05 | 0.03 ± 0.01 | 0.31 ± 0.2 | 0.7 ± 0.69 | 1.8 ± 0.37 | 0.0553 ± 0.0078 |
|  |  | CCCC[C@H](NC(=O)[C@H](Cc1c[nH]c2ccccc12)NC(=O)CNC(=O)[C@H](Cc1ccc(O)cc1)NC(=O)[C@H](C)NC(=O)CC[C@@H](NC(=O)CC[C@@H](NC(=O)CC[C@@H](NC(=O)CC[C@@H](NC(=O)CC[C@@H](NC(=O)CC[C@@H](NC(=O)[C@@H](CNC(=O)c1ccc([Si](F)(C(C)(C)C)C(C)(C)C)cc1)NC(=O)CC[C@H](C(=O)O)N1CCN(CC(=O)O)CCN(CC(=O)O)CCN(CC(=O)O)CC1)C(=O)O)C(=O)O)C(=O)O)C(=O)O)C(=O)O)C(=O)O)C(=O)N[C@@H](CC(=O)O)C(=O)N[C@@H](Cc1ccccc1)C(N)=O [[nat/177Lu]Lu-(R)-DOTAGA-rhCCK-16, metal not drawn] | 15.7 ± 3.3 | 1.49 ± 1.5 | 0.01 | 0.17 ± 0.02 | 0.11 ± 0.01 | 0.2 ± 0.04 | 85.5 ± 11.3 | 1.18 ± 0.27 | 0.09 ± 0.02 | 0.05 ± 0.01 | 0.39 ± 0.12 | 0.62 ± 0.03 | 3.51 ± 0.5 | 0.0204 ± 0.0027 |
| 0.011 to 0.013 |  | CSCC[C@H](NC(=O)[C@H](Cc1c[nH]c2ccccc12)NC(=O)CNC(=O)[C@H](Cc1ccc(O)cc1)NC(=O)[C@H](C)NC(=O)[C@@H](CCC(=O)O)NC(=O)[C@@H](CCC(=O)O)NC(=O)[C@@H](CCC(=O)O)NC(=O)[C@@H](CCC(=O)O)NC(=O)[C@@H](CCC(=O)O)NC(=O)[C@@H](CCC(=O)O)NC(=O)CN1CCN(CC(=O)O)CCN(CC(=O)O)CCN(CC(=O)O)CC1)C(=O)N[C@@H](CC(=O)O)C(=O)N[C@@H](Cc1ccccc1)C(N)=O [[nat/177Lu]Lu-CP04, metal not drawn, reference compound] |  |  |  |  |  |  |  |  |  |  |  |  |  |  |
|  | 0.011 to 0.013 | CCCC[C@H](NC(=O)[C@H](Cc1c[nH]c2ccccc12)NC(=O)CNC(=O)[C@H](Cc1ccc(O)cc1)NC(=O)[C@H](C)NC(=O)[C@@H](CCC(=O)O)NC(=O)[C@@H](CCC(=O)O)NC(=O)[C@@H](CCC(=O)O)NC(=O)[C@@H](CCC(=O)O)NC(=O)[C@@H](CCC(=O)O)NC(=O)[C@@H](CCC(=O)O)NC(=O)CN1CCN(CC(=O)O)CCN(CC(=O)O)CCN(CC(=O)O)CC1)C(=O)N[C@@H](CC(=O)O)C(=O)N[C@@H](Cc1ccccc1)C(N)=O [[nat/177Lu]Lu-DOTA-PP-F11N, metal not drawn, reference compound] | 1.88 ± 0.82 | 0.03 ± 0.03 |  | 0.03 ± 0.01 |  | 0.04 ± 0.02 | 3.08 ± 0.51 | 0.67 ± 0.64 |  |  | 0.05 ± 0.01 | 0.07 ± 0.03 | 0.36 ± 0.05 |  |

From publication PMC9783573, “Introduction of a SiFA Moiety into the D-Glutamate Chain of DOTA-PP-F11N Results in Radiohybrid-Based CCK-2R-Targeted Compounds with Improved Pharmacokinetics In Vivo” (Pharmaceuticals, 2022)
